Test results from article PMC5515969, “Effects of 31 FDA approved small-molecule kinase inhibitors on isolated rat liver mitochondria” (Archives of Toxicology, 2016).

tested on: isolated rat liver mitochondria; test: Mitochondrial ROS production (CM-H2DCFDA); settings: 1XCmax; DMSO treated samples set as 1

Row | Compound | ROS measured by CM-H2DCFDA at 1XCmax
1 | Cc1nc(Nc2ncc(C(=O)Nc3c(C)cccc3Cl)s2)cc(N2CCN(CCO)CC2)n1 [dasatinib (free base)] | 0
2 | N#CC[C@H](C1CCCC1)n1cc(-c2ncnc3[nH]ccc23)cn1 [ruxolitinib phosphate] | 0
3 | CCN(CC)CCNC(=O)c1c(C)[nH]c(/C=C2\C(=O)Nc3ccc(F)cc32)c1C [sunitinib malate] | 0

same assay, conditions: 2.5XCmax; DMSO treated samples set as 1

Row | Compound | ROS measured by CM-H2DCFDA at 2.5XCmax
4 | Cc1nc(Nc2ncc(C(=O)Nc3c(C)cccc3Cl)s2)cc(N2CCN(CCO)CC2)n1 [dasatinib (free base)] | 0
5 | N#CC[C@H](C1CCCC1)n1cc(-c2ncnc3[nH]ccc23)cn1 [ruxolitinib phosphate] | 0
6 | CCN(CC)CCNC(=O)c1c(C)[nH]c(/C=C2\C(=O)Nc3ccc(F)cc32)c1C [sunitinib malate] | 0

same assay, conditions: 5XCmax; DMSO treated samples set as 1

Row | Compound | ROS measured by CM-H2DCFDA at 5XCmax
7 | Cc1nc(Nc2ncc(C(=O)Nc3c(C)cccc3Cl)s2)cc(N2CCN(CCO)CC2)n1 [dasatinib (free base)] | 0
8 | N#CC[C@H](C1CCCC1)n1cc(-c2ncnc3[nH]ccc23)cn1 [ruxolitinib phosphate] | 0
9 | CCN(CC)CCNC(=O)c1c(C)[nH]c(/C=C2\C(=O)Nc3ccc(F)cc32)c1C [sunitinib malate] | 0

same assay, conditions: 10XCmax; DMSO treated samples set as 1

Row | Compound | ROS measured by CM-H2DCFDA at 10XCmax
10 | Cc1nc(Nc2ncc(C(=O)Nc3c(C)cccc3Cl)s2)cc(N2CCN(CCO)CC2)n1 [dasatinib (free base)] | 0
11 | N#CC[C@H](C1CCCC1)n1cc(-c2ncnc3[nH]ccc23)cn1 [ruxolitinib phosphate] | 0
12 | CCN(CC)CCNC(=O)c1c(C)[nH]c(/C=C2\C(=O)Nc3ccc(F)cc32)c1C [sunitinib malate] | 0

same assay, conditions: 20XCmax; DMSO treated samples set as 1

Row | Compound | ROS measured by CM-H2DCFDA at 20XCmax
13 | Cc1nc(Nc2ncc(C(=O)Nc3c(C)cccc3Cl)s2)cc(N2CCN(CCO)CC2)n1 [dasatinib (free base)] | 0
14 | N#CC[C@H](C1CCCC1)n1cc(-c2ncnc3[nH]ccc23)cn1 [ruxolitinib phosphate] | 0
15 | CCN(CC)CCNC(=O)c1c(C)[nH]c(/C=C2\C(=O)Nc3ccc(F)cc32)c1C [sunitinib malate] | 0

same assay, conditions: 30XCmax; DMSO treated samples set as 1

Row | Compound | ROS measured by CM-H2DCFDA at 30XCmax
16 | Cc1nc(Nc2ncc(C(=O)Nc3c(C)cccc3Cl)s2)cc(N2CCN(CCO)CC2)n1 [dasatinib (free base)] | 0
17 | N#CC[C@H](C1CCCC1)n1cc(-c2ncnc3[nH]ccc23)cn1 [ruxolitinib phosphate] | 0
18 | CCN(CC)CCNC(=O)c1c(C)[nH]c(/C=C2\C(=O)Nc3ccc(F)cc32)c1C [sunitinib malate] | 0

same assay, conditions: 50XCmax; DMSO treated samples set as 1

Row | Compound | ROS measured by CM-H2DCFDA at 50XCmax
19 | Cc1nc(Nc2ncc(C(=O)Nc3c(C)cccc3Cl)s2)cc(N2CCN(CCO)CC2)n1 [dasatinib (free base)] | 0
20 | N#CC[C@H](C1CCCC1)n1cc(-c2ncnc3[nH]ccc23)cn1 [ruxolitinib phosphate] | 0
21 | CCN(CC)CCNC(=O)c1c(C)[nH]c(/C=C2\C(=O)Nc3ccc(F)cc32)c1C [sunitinib malate] | 0

same assay, conditions: 100XCmax; DMSO treated samples set as 1

Row | Compound | ROS measured by CM-H2DCFDA at 100XCmax
22 | Cc1nc(Nc2ncc(C(=O)Nc3c(C)cccc3Cl)s2)cc(N2CCN(CCO)CC2)n1 [dasatinib (free base)] | 0
23 | N#CC[C@H](C1CCCC1)n1cc(-c2ncnc3[nH]ccc23)cn1 [ruxolitinib phosphate] | 0
24 | CCN(CC)CCNC(=O)c1c(C)[nH]c(/C=C2\C(=O)Nc3ccc(F)cc32)c1C [sunitinib malate] | 0

tested on: not given; test: not given; set-up: method as in product labeling; settings: BBW: black box warning; W&P: Warnings and Precautions; ref product labeling; cited from earlier work

Row | Compound | Labeling for cardiotoxicity
25 | Cc1nc(Nc2ncc(C(=O)Nc3c(C)cccc3Cl)s2)cc(N2CCN(CCO)CC2)n1 [dasatinib (free base)] | W&P: Cardiovascular events;QT Interval Prolongation
26 | CCN(CC)CCNC(=O)c1c(C)[nH]c(/C=C2\C(=O)Nc3ccc(F)cc32)c1C [sunitinib malate] | W&P: Cardiovascular events;QT Interval Prolongation and Torsade de Pointes

same assay, conditions: ref product labeling; cited from earlier work

Row | Compound | Potential for cardiotoxicity (based on labeling)
27 | Cc1nc(Nc2ncc(C(=O)Nc3c(C)cccc3Cl)s2)cc(N2CCN(CCO)CC2)n1 [dasatinib (free base)] | 1
28 | N#CC[C@H](C1CCCC1)n1cc(-c2ncnc3[nH]ccc23)cn1 [ruxolitinib phosphate] | 0
29 | CCN(CC)CCNC(=O)c1c(C)[nH]c(/C=C2\C(=O)Nc3ccc(F)cc32)c1C [sunitinib malate] | 1

tested on: isolated rat liver mitochondria; test: not given; settings: 1XCmax; positive control alamethicin treated samples

Row | Compound | Cytochrome c release 1XCmax
30 | Cc1nc(Nc2ncc(C(=O)Nc3c(C)cccc3Cl)s2)cc(N2CCN(CCO)CC2)n1 [dasatinib (free base)] | 0
31 | N#CC[C@H](C1CCCC1)n1cc(-c2ncnc3[nH]ccc23)cn1 [ruxolitinib phosphate] | 0
32 | CCN(CC)CCNC(=O)c1c(C)[nH]c(/C=C2\C(=O)Nc3ccc(F)cc32)c1C [sunitinib malate] | 0

same assay, conditions: 2.5XCmax; positive control alamethicin treated samples

Row | Compound | Cytochrome c release 2.5XCmax
33 | Cc1nc(Nc2ncc(C(=O)Nc3c(C)cccc3Cl)s2)cc(N2CCN(CCO)CC2)n1 [dasatinib (free base)] | 0
34 | N#CC[C@H](C1CCCC1)n1cc(-c2ncnc3[nH]ccc23)cn1 [ruxolitinib phosphate] | 0
35 | CCN(CC)CCNC(=O)c1c(C)[nH]c(/C=C2\C(=O)Nc3ccc(F)cc32)c1C [sunitinib malate] | 0

same assay, conditions: 5XCmax; positive control alamethicin treated samples

Row | Compound | Cytochrome c release 5XCmax
36 | Cc1nc(Nc2ncc(C(=O)Nc3c(C)cccc3Cl)s2)cc(N2CCN(CCO)CC2)n1 [dasatinib (free base)] | 0
37 | N#CC[C@H](C1CCCC1)n1cc(-c2ncnc3[nH]ccc23)cn1 [ruxolitinib phosphate] | 0
38 | CCN(CC)CCNC(=O)c1c(C)[nH]c(/C=C2\C(=O)Nc3ccc(F)cc32)c1C [sunitinib malate] | 0

same assay, conditions: 10XCmax; positive control alamethicin treated samples

Row | Compound | Cytochrome c release 10XCmax
39 | Cc1nc(Nc2ncc(C(=O)Nc3c(C)cccc3Cl)s2)cc(N2CCN(CCO)CC2)n1 [dasatinib (free base)] | 0
40 | N#CC[C@H](C1CCCC1)n1cc(-c2ncnc3[nH]ccc23)cn1 [ruxolitinib phosphate] | 0
41 | CCN(CC)CCNC(=O)c1c(C)[nH]c(/C=C2\C(=O)Nc3ccc(F)cc32)c1C [sunitinib malate] | 0

same assay, conditions: 20XCmax; positive control alamethicin treated samples

Row | Compound | Cytochrome c release 20XCmax
42 | Cc1nc(Nc2ncc(C(=O)Nc3c(C)cccc3Cl)s2)cc(N2CCN(CCO)CC2)n1 [dasatinib (free base)] | 0
43 | N#CC[C@H](C1CCCC1)n1cc(-c2ncnc3[nH]ccc23)cn1 [ruxolitinib phosphate] | 0
44 | CCN(CC)CCNC(=O)c1c(C)[nH]c(/C=C2\C(=O)Nc3ccc(F)cc32)c1C [sunitinib malate] | 0

same assay, conditions: 30XCmax; positive control alamethicin treated samples

Row | Compound | Cytochrome c release 30XCmax
45 | Cc1nc(Nc2ncc(C(=O)Nc3c(C)cccc3Cl)s2)cc(N2CCN(CCO)CC2)n1 [dasatinib (free base)] | 0
46 | N#CC[C@H](C1CCCC1)n1cc(-c2ncnc3[nH]ccc23)cn1 [ruxolitinib phosphate] | 0
47 | CCN(CC)CCNC(=O)c1c(C)[nH]c(/C=C2\C(=O)Nc3ccc(F)cc32)c1C [sunitinib malate] | 0

same assay, conditions: 50XCmax; positive control alamethicin treated samples

Row | Compound | Cytochrome c release 50XCmax
48 | Cc1nc(Nc2ncc(C(=O)Nc3c(C)cccc3Cl)s2)cc(N2CCN(CCO)CC2)n1 [dasatinib (free base)] | 0
49 | N#CC[C@H](C1CCCC1)n1cc(-c2ncnc3[nH]ccc23)cn1 [ruxolitinib phosphate] | 13.84±2.24 percentage of the positive control group
50 | CCN(CC)CCNC(=O)c1c(C)[nH]c(/C=C2\C(=O)Nc3ccc(F)cc32)c1C [sunitinib malate] | 0

same assay, conditions: 100XCmax; positive control alamethicin treated samples

Row | Compound | Cytochrome c release 100XCmax
51 | Cc1nc(Nc2ncc(C(=O)Nc3c(C)cccc3Cl)s2)cc(N2CCN(CCO)CC2)n1 [dasatinib (free base)] | 0
52 | N#CC[C@H](C1CCCC1)n1cc(-c2ncnc3[nH]ccc23)cn1 [ruxolitinib phosphate] | 8.09±1.58 percentage of the positive control group
53 | CCN(CC)CCNC(=O)c1c(C)[nH]c(/C=C2\C(=O)Nc3ccc(F)cc32)c1C [sunitinib malate] | 0
